Assay results: PubChem BioAssay (NCI)
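Assay format: 96-well plates, 48-hour exposure. GI50 = concentration required for 50% inhibition of growth. TGI marks complete inhibition of growth.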

What was measured:
Experiment in all cases: inhibition of tumour cell growth, NCI panel, 48 h
[1] = test system: CCRF-CEM leukemia
[2] = test system: COLO 205 colon
[3] = test system: NCI-H460 lung
[4] = test system: EKVX NSCLC
[5] = test system: SF-295 CNS
[6] = test system: MDA-MB-231 breast
[7] = test system: SN12C renal
[8] = test system: MOLT-4 leukemia
[9] = test system: CAKI-1 renal
[10] = test system: SK-MEL-2 melanoma
[11] = test system: SK-OV-3 ovarian
[12] = test system: RXF 393 renal
[13] = test system: HT29 colon
[14] = test system: 786-0 renal
[15] = test system: SK-MEL-28 melanoma
[16] = test system: SNB-19 CNS
[17] = test system: SW-620 colon
[18] = test system: UO-31 renal
[19] = test system: LOX IMVI melanoma
[20] = test system: RPMI-8226 leukemia
[21] = test system: NCI-H522 lung
[22] = test system: BT-549 breast
[23] = test system: SF-268 CNS
[24] = test system: TK-10 renal
[25] = test system: HCT-15 colon
[26] = test system: HCC-2998 colon
[27] = test system: OVCAR-4 ovarian

**Q.** For `Cc1ccccc1Nc1nnc(-c2c[nH]c3ccccc23)o1`, which GI50 [1] is on record?
**A.** The GI50 was 2090 nM.

**Q.** And the TGI [1]?
**A.** The TGI was over 100 µM.

**Q.** What about the GI50 [2] of the same compound?
**A.** The GI50 was 2220 nM.

**Q.** What about the TGI [2] of the same compound?
**A.** The TGI was 16.7 µM.

**Q.** What about the GI50 [3] of the same compound?
**A.** The GI50 was 2880 nM.

**Q.** What about the TGI [3] of the same compound?
**A.** The TGI was over 100 µM.

**Q.** What about the GI50 [4] of the same compound?
**A.** Its GI50 is 4.48 µM.

**Q.** What about the TGI [4] of the same compound?
**A.** The TGI was over 100 µM.

**Q.** What about the GI50 [5] of the same compound?
**A.** Its GI50 is 567 nM.

**Q.** What about the TGI [5] of the same compound?
**A.** The TGI was 6 µM.

**Q.** What about the GI50 [6] of the same compound?
**A.** Its GI50 is 3.68 µM.

**Q.** What about the TGI [6] of the same compound?
**A.** The TGI was over 100 µM.

**Q.** And the GI50 [7]?
**A.** Its GI50 is 3.25 µM.

**Q.** What about the TGI [7] of the same compound?
**A.** The TGI was over 100 µM.

**Q.** What about the GI50 [8] of the same compound?
**A.** Its GI50 is 2550 nM.

**Q.** What about the TGI [8] of the same compound?
**A.** Its TGI is over 100 µM.

**Q.** What about the GI50 [9] of the same compound?
**A.** The GI50 was 897 nM.

**Q.** And the TGI [9]?
**A.** Its TGI is over 100 µM.

**Q.** What about the GI50 [10] of the same compound?
**A.** The GI50 was 1160 nM.

**Q.** What about the TGI [10] of the same compound?
**A.** The TGI was 4.4 µM.

**Q.** What about the GI50 [11] of the same compound?
**A.** Its GI50 is 3.52 µM.

**Q.** What about the TGI [11] of the same compound?
**A.** Its TGI is over 100 µM.

**Q.** What about the GI50 [12] of the same compound?
**A.** Its GI50 is 2250 nM.

**Q.** And the TGI [12]?
**A.** The TGI was 9.91 µM.

**Q.** And the GI50 [13]?
**A.** Its GI50 is 2130 nM.

**Q.** What about the TGI [13] of the same compound?
**A.** Its TGI is 11.6 µM.

**Q.** And the GI50 [14]?
**A.** Its GI50 is 5.58 µM.

**Q.** What about the TGI [14] of the same compound?
**A.** Its TGI is over 100 µM.

**Q.** And the GI50 [15]?
**A.** Its GI50 is 3.91 µM.

**Q.** What about the TGI [15] of the same compound?
**A.** The TGI was over 100 µM.

**Q.** What about the GI50 [16] of the same compound?
**A.** Its GI50 is 3.36 µM.

**Q.** What about the TGI [16] of the same compound?
**A.** The TGI was over 100 µM.

**Q.** What about the GI50 [17] of the same compound?
**A.** The GI50 was 882 nM.

**Q.** What about the TGI [17] of the same compound?
**A.** The TGI was over 100 µM.

**Q.** And the GI50 [18]?
**A.** Its GI50 is 1880 nM.

**Q.** What about the TGI [18] of the same compound?
**A.** The TGI was over 100 µM.

**Q.** And the GI50 [19]?
**A.** Its GI50 is 2960 nM.

**Q.** And the TGI [19]?
**A.** Its TGI is over 100 µM.

**Q.** What about the GI50 [20] of the same compound?
**A.** The GI50 was 3.03 µM.

**Q.** What about the TGI [20] of the same compound?
**A.** Its TGI is over 100 µM.

**Q.** And the GI50 [21]?
**A.** The GI50 was 850 nM.

**Q.** And the TGI [21]?
**A.** The TGI was 6.34 µM.

**Q.** And the GI50 [22]?
**A.** The GI50 was 3.7 µM.

**Q.** And the TGI [22]?
**A.** The TGI was over 100 µM.

**Q.** What about the GI50 [23] of the same compound?
**A.** The GI50 was 5.15 µM.

**Q.** And the TGI [23]?
**A.** The TGI was over 100 µM.

**Q.** What about the GI50 [24] of the same compound?
**A.** Its GI50 is 7.65 µM.

**Q.** What about the TGI [24] of the same compound?
**A.** Its TGI is over 100 µM.

**Q.** And the GI50 [25]?
**A.** The GI50 was 1780 nM.

**Q.** And the TGI [25]?
**A.** The TGI was over 100 µM.

**Q.** What about the GI50 [26] of the same compound?
**A.** Its GI50 is 3.3 µM.

**Q.** What about the TGI [26] of the same compound?
**A.** The TGI was 15.9 µM.

**Q.** And the GI50 [27]?
**A.** The GI50 was 8.06 µM.

**Q.** And the TGI [27]?
**A.** Its TGI is over 100 µM.
